The text below walks through data of patent US9686984B2, “Macrocyclic picolinamides as fungicides” (DOW AGROSCIENCES LLC, priority 2014, dated 2017).

One data set relates to Zymoseptoria tritici. Description: Leaf Blotch of Wheat (SEPTTR) disease control on wheat seedlings. The settings on record: for pest or weed control at 121.5 g/ha: Low Volume (121.5 g/H); for pest or weed control at 100 µg/mL: High Volume (100 ppm). It counts as in vivo. The protocol: Example A: Evaluation of Fungicidal Activity: Leaf Blotch of Wheat (Mycosphaerella graminicola; Anamorph: Zymoseptoria tritici; Bayer code […]) Technical grades of materials were dissolved in acetone, which were then mixed with nine volumes of water containing 110 ppm Triton X-100. The fungicide solutions were applied onto wheat seedlings using an automated booth sprayer to run-off. All sprayed plants were allowed to air dry prior to further handling. All fungicides were evaluated using the aforementioned method for their activity vs. all target diseases, unless stated otherwise. Wheat leaf blotch and brown rust activity were also evaluated using track spray applications, in which case the fungicides were formulated as EC formulations, containing 0.1% Trycol 5941 in the spray solutions. Wheat plants (variety Yuma) were grown from seed in a greenhouse in 50% mineral soil/50% soil-less Metro mix until the first leaf was fully emerged, with 7-10 seedlings per pot. These plants were inoculated with an aqueous spore suspension of Septoria tritici either prior to or after fungicide treatments. After inoculation the plants were kept in 100% relative humidity (one day in a dark dew chamber followed by two to three days in a lighted dew chamber at 20° C.) to permit spores to germinate and infect the leaf. The plants were then transferred to a greenhouse set at 20° C. for disease to develop. When disease symptoms were fully expressed on the 1st leaves of untreated plants, infection levels were assessed on a scale of 0 to 100 percent disease severity. Percent disease control was calculated using the ratio of disease severity on treated plants relative to untreated plants.

Another data set has as its system Puccinia triticina. The data set is described as follows: Wheat Brown Rust (PUCCRT) disease control on wheat seedlings. It counts as in vivo. The settings on record: for pest or weed control at 121.5 g/ha: Low Volume (121.5 g/H); for pest or weed control at 100 µg/mL: High Volume (100 ppm). The protocol: Technical grades of materials were dissolved in acetone, which were then mixed with nine volumes of water containing 110 ppm Triton X-100. The fungicide solutions were applied onto wheat seedlings using an automated booth sprayer to run-off. All sprayed plants were allowed to air dry prior to further handling. All fungicides were evaluated using the aforementioned method for their activity vs. all target diseases, unless stated otherwise. Wheat leaf blotch and brown rust activity were also evaluated using track spray applications, in which case the fungicides were formulated as EC formulations, containing 0.1% Trycol 5941 in the spray solutions. Wheat plants (variety Yuma) were grown from seed in a greenhouse in 50% mineral soil/50% soil-less Metro mix until the first leaf was fully emerged, with 7-10 seedlings per pot. These plants were inoculated with an aqueous spore suspension of Septoria tritici either prior to or after fungicide treatments. After inoculation the plants were kept in 100% relative humidity (one day in a dark dew chamber followed by two to three days in a lighted dew chamber at 20° C.) to permit spores to germinate and infect the leaf. The plants were then transferred to a greenhouse set at 20° C. for disease to develop. When disease symptoms were fully expressed on the 1st leaves of untreated plants, infection levels were assessed on a scale of 0 to 100 percent disease severity. Percent disease control was calculated using the ratio of disease severity on treated plants relative to untreated plants. Example B: Evaluation of Fungicidal Activity: Wheat Brown Rust (Puccinia triticina; Synonym: Puccinia recondita f. sp. tritici; Bayer code PUCCRT) Wheat plants (variety Yuma) were grown from seed in a greenhouse in 50% mineral soil/50% soil-less Metro mix until the first leaf was fully emerged, with 7-10 seedlings per pot. These plants were inoculated with an aqueous spore suspension of Puccinia triticina either prior to or after fungicide treatments. After inoculation the plants were kept in a dark dew room at 22° C. with 100% relative humidity overnight to permit spores to germinate and infect the leaf. The plants were then transferred to a greenhouse set at 24° C. for disease to develop. Fungicide formulation, application and disease assessment followed the procedures as described in the Example A.

Another data set concerns Phakopsora pachyrhizi. The data set is described as follows: Asian Soybean Rust (PHAKPA) disease control. The settings on record: 25 ppm. The class given is in vivo. Here is the method:
Example H: Evaluation of Fungicidal Activity: Asian Soybean Rust (Phakopsora pachyrhizi; Bayer Code […]) Technical grades of materials were dissolved in acetone, which were then mixed with nine volumes of water containing 0.011% Tween 20. The fungicide solutions were applied onto soybean seedlings using an automated booth sprayer to run-off. All sprayed plants were allowed to air dry prior to further handling. Soybean plants (variety Williams 82) were grown in soil-less Metro mix, with one plant per pot. Two weeks old seedlings were used for testing. Plants were inoculated either 3 days prior to or 1 day after fungicide treatments. Plants were incubated for 24 h in a dark dew room at 22° C. and 100% relative humidity then transferred to a growth room at 23° C. for disease to develop. Disease severity was assessed on the sprayed leaves.

Setting [1] is: 24 h, 1 Day Protectant, read-out: SEPTTR disease control, 1 DP.
The mark [2] stands for this setting: 72 h, 3 Day Curative, read-out: SEPTTR disease control, 3 DC.
The mark [3] stands for this setting: 24 h, 1 Day Protectant, read-out: PUCCRT disease control, 1 DP.
[4] abbreviates: 72 h, 3 Day Curative, read-out: PUCCRT disease control, 3 DC.

SMILES strings stand for the structures. Like-named read-outs stand apart in the source and are kept apart here.

Broadly, the melting point is the temperature of the solid-liquid transition.

`CCCC[C@H]1[C@H](C)OC(=O)[C@@H](N)CCO[C@@H]1COc1ccccc1.Cl` came in with a melting point of 195 to 197 °C.
For the compound `COc1ccnc(C(=O)N[C@H]2CCO[C@H](CCc3ccccc3)[C@@H](CCC(C)C)[C@H](C)OC2=O)c1OCOC(C)=O` [Compound 26], the melting point fell in the range of 48 to 54 °C. Further, in the data set on Zymoseptoria tritici (setting [1]), the pest or weed control at 121.5 g/ha was > 70%. The pest or weed control at 121.5 g/ha in the data set on Zymoseptoria tritici (setting [2]) was > 70%. In addition, the pest or weed control at 121.5 g/ha in the data set with Puccinia triticina (setting [3]) was > 70%. Besides, the pest or weed control at 121.5 g/ha with Puccinia triticina (setting [4]) is > 70%.
`COc1ccnc(C(=O)N[C@H]2CCO[C@H](CCc3ccc(F)cc3)[C@@H](CCC(C)C)[C@H](C)OC2=O)c1OCOC(C)=O` [Compound 27] had a melting point of 49 to 54 °C. Further, the pest or weed control at 121.5 g/ha with Zymoseptoria tritici (setting [1]) is > 70%. Also, the pest or weed control at 121.5 g/ha in the data set on Zymoseptoria tritici (setting [2]) is > 70%. The pest or weed control at 121.5 g/ha with Puccinia triticina (setting [3]) was > 70%. Besides, the pest or weed control at 121.5 g/ha in the data set on Puccinia triticina (setting [4]) was > 70%.
In turn, `COc1ccnc(C(=O)N[C@H]2CCO[C@H](Cc3ccccc3)[C@@H](CCC(C)C)[C@H](C)OC2=O)c1OCOC(C)=O` [Compound 29] yielded a melting point of 55 to 60 °C. In the data set on Zymoseptoria tritici (setting [1]), the pest or weed control at 121.5 g/ha was > 70%. Also, the pest or weed control at 121.5 g/ha in the data set with Zymoseptoria tritici (setting [2]) is > 70%. Also, in the data set on Puccinia triticina (setting [3]), the pest or weed control at 121.5 g/ha was > 70%. The pest or weed control at 121.5 g/ha in the data set with Puccinia triticina (setting [4]) was > 70%.
Consider `COc1ccnc(C(=O)N[C@H]2CCO[C@H](CCc3ccc(F)cc3)[C@@H](CCC(C)C)[C@H](C)OC2=O)c1OCOC(=O)C(C)C` [Compound 39], for which the melting point is 49 to 54 °C. Also, the pest or weed control at 121.5 g/ha with Zymoseptoria tritici (setting [1]) is > 70%. The pest or weed control at 121.5 g/ha in the data set with Zymoseptoria tritici (setting [2]) is < 70%. The pest or weed control at 121.5 g/ha with Puccinia triticina (setting [3]) was > 70%. In the data set with Puccinia triticina (setting [4]), the pest or weed control at 121.5 g/ha is > 70%.
With `COc1ccnc(C(=O)N[C@H]2CCOC[C@@H](Cc3ccccc3-c3ccccc3)[C@H](C)OC2=O)c1OCOC(=O)C(C)C` [Compound 40], the melting point lay in the range of 54 to 59 °C. Further, the pest or weed control at 121.5 g/ha in the data set on Zymoseptoria tritici (setting [1]) was > 70%. In the data set on Zymoseptoria tritici (setting [2]), the pest or weed control at 121.5 g/ha is > 70%. Besides, the pest or weed control at 121.5 g/ha in the data set on Puccinia triticina (setting [3]) was > 70%. The pest or weed control at 121.5 g/ha with Puccinia triticina (setting [4]) is > 70%.
Turning to `CCC[C@H]1OCC[C@H](NC(=O)c2nccc(OC)c2OCOC(=O)COCC)C(=O)O[C@@H](C)[C@@H]1Cc1ccccc1` [Compound 43], the pest or weed control at 100 µg/mL in the data set on Zymoseptoria tritici (setting [1]), in the data set with Zymoseptoria tritici (setting [2]), in the data set on Puccinia triticina (setting [3]) and with Puccinia triticina (setting [4]) was > 70% throughout. Also, the pest or weed control at 121.5 g/ha in the data set with Zymoseptoria tritici (setting [1]), in the data set with Zymoseptoria tritici (setting [2]), in the data set with Puccinia triticina (setting [3]) and in the data set with Puccinia triticina (setting [4]) was > 70% throughout. In addition, the “PHAKPA disease control, 1DP” value in the data set on Phakopsora pachyrhizi (1 Day Protectant) was “A (>70)”. Also, in the data set with Phakopsora pachyrhizi (3 Day Curative), the “PHAKPA disease control, 3DC” value is “A (>70)”.
For `CCC[C@H]1OCC[C@H](NC(=O)c2nccc(OC)c2O)C(=O)O[C@@H](C)[C@@H]1Cc1ccccc1` [Compound 50], the melting point lay within 52 to 56 °C. For the same compound, in the data set on Zymoseptoria tritici (setting [1]), the pest or weed control at 100 µg/mL was > 70%. Moreover, the pest or weed control at 100 µg/mL with Zymoseptoria tritici (setting [2]) is > 70%. In addition, the pest or weed control at 100 µg/mL in the data set with Puccinia triticina (setting [3]) was > 70%. The pest or weed control at 100 µg/mL in the data set on Puccinia triticina (setting [4]) is > 70%.
On to `CCCC[C@H]1OCC[C@H](NC(=O)c2nccc(OC)c2O)C(=O)O[C@@H](C)[C@@H]1Cc1ccc(F)cc1` [Compound 56], for which the pest or weed control at 100 µg/mL was < 70% with Zymoseptoria tritici (setting [1]), > 70% in the data set on Zymoseptoria tritici (setting [2]), > 70% with Puccinia triticina (setting [3]) and > 70% with Puccinia triticina (setting [4]).
For the compound `COc1ccnc(C(=O)N[C@H]2CCO[C@H](CCc3ccccc3)[C@@H](Cc3ccc(F)cc3)[C@H](C)OC2=O)c1O` [Compound 57, N-((2R,3S,4S,7S)-3-(4-fluorobenzyl)-4-methyl-6-oxo-2-phenethyl-1,5-dioxonan-7-yl)-3-hydroxy-4-methoxypicolinamide], the pest or weed control at 100 µg/mL with Zymoseptoria tritici (setting [1]) is > 70%; in the data set on Zymoseptoria tritici (setting [2]), > 70%; with Puccinia triticina (setting [3]) it was > 70%; in the data set with Puccinia triticina (setting [4]) it was < 70%.
In the case of `COc1ccnc(C(=O)N[C@H]2CCO[C@H](CCc3ccccc3)[C@@H](CCC(C)C)[C@H](C)OC2=O)c1O` [Compound 59], the pest or weed control at 100 µg/mL with Zymoseptoria tritici (setting [1]), in the data set on Zymoseptoria tritici (setting [2]), in the data set with Puccinia triticina (setting [3]) and in the data set on Puccinia triticina (setting [4]) was > 70% each time.
Compound `COc1ccnc(C(=O)N[C@H]2CCOC[C@@H](CCC(C)C)[C@H](C)OC2=O)c1O` [Compound 63] registered a melting point of 49 to 53 °C.
Regarding `CCCC[C@H]1[C@H](C)OC(=O)[C@@H](NC(=O)c2nccc(OC)c2O)CCO[C@@H]1CCc1ccccc1` [Compound 64], the pest or weed control at 100 µg/mL with Zymoseptoria tritici (setting [1]), in the data set on Zymoseptoria tritici (setting [2]), with Puccinia triticina (setting [3]) and with Puccinia triticina (setting [4]) was > 70% each time.
`CCCC[C@H]1[C@H](C)OC(=O)[C@@H](NC(=O)c2nccc(OC)c2O)CCO[C@@H]1CC` [Compound 67] had a melting point of 44 to 46 °C. Besides, in the data set with Zymoseptoria tritici (setting [1]), the pest or weed control at 100 µg/mL was > 70%. In the data set with Zymoseptoria tritici (setting [2]), the pest or weed control at 100 µg/mL was < 70%. In addition, the pest or weed control at 100 µg/mL with Puccinia triticina (setting [3]) was > 70%. Besides, the pest or weed control at 100 µg/mL in the data set with Puccinia triticina (setting [4]) was > 70%.
Turning to `CCCC[C@H]1[C@H](C)OC(=O)[C@@H](NC(=O)c2nccc(OC)c2O)CCO[C@@H]1COc1ccccc1` [Compound 68], the pest or weed control at 100 µg/mL with Zymoseptoria tritici (setting [1]) is > 70%; in the data set with Zymoseptoria tritici (setting [2]), < 70%; in the data set with Puccinia triticina (setting [3]), > 70%; with Puccinia triticina (setting [4]), > 70%.
`CC(C)CC[C@H]1[C@H](C)OC(=O)[C@@H](NC(=O)OC(C)(C)C)CCO[C@@H]1CCc1ccc(F)cc1` [Compound 100] registered a melting point of 39 to 44 °C.
As to `CC(C)CC[C@H]1[C@H](C)OC(=O)[C@@H](NC(=O)OC(C)(C)C)CCO[C@@H]1Cc1ccccc1` [Compound 102], the melting point was in the range of 41 to 44 °C.
The same measure, in the same setting: as for `CC(C)CC[C@@H]1COCC[C@H](NC(=O)OC(C)(C)C)C(=O)O[C@H]1C` [Compound 103], the figure is 110 to 112 °C.
